According to PMC3551756, “HIV-1 Fusion Is Blocked through Binding of GB Virus C E2D Peptides to the HIV-1 gp41 Disulfide Loop” (PLoS ONE, 2013):

Key:
[1] = test system: HIV-1 Env (NL4-3 gp160, X4env) on 293T cells; test: HIV-1 gp160 (X4env) binding of FITC-labeled E2 peptides, flow cytometry; conditions: FITC-labeled peptides 1 µM; for binding to HIV-1 Env-expressing cells: sCD4 pretreated, 1 h 37°C, X4env- vs vector-transfected 293T cells, three independent experiments each in duplicate; for background attachment to mock- or vector-transfected cells: mock- or vector-transfected 293T cells
Description: 293T cells were transiently transfected with an HIV-1 Env expression vector, coding for the CXCR4-tropic NL4-3 gp160 precursor (X4env) for surface expression of gp120-gp41 Env trimers or empty plasmid as control. After 2 days of cultivation, cells were incubated with 1 µg sCD4 and 1 µM FITC-conjugated E2 peptides for 1 h at 37°C respectively. Subsequently, cells were washed, resuspended in PBS, and analyzed by flow cytometry using a BD™ LSR II flow cytometer (Becton Dickinson Biosciences, Germany). Flow cytometer data were collected with BD FACSDiva™ and analyzed with FCS Express V3. In parallel, gp160 expression was determined by staining with HIV-1 gp120 mAbs (2G12 and 17b) and an anti-human IgG-FITC pAb (Dako, Germany).
Previously, we have shown that the target of the HIV-1-inhibitory E2 peptides is most likely located on the HIV-1 particle, rather than on the cell. The surface of the HIV-1 particle consists of a lipid bilayer with incorporated host cell proteins and a limited number of functional envelope (Env) trimers (on average 14±7). Therefore, we tested whether the HIV-1-inhibitory E2 peptides interact with trimeric HIV-1 Env proteins expressed on the surface of transfected cells. For this purpose, 293T cells were transiently transfected with an HIV-1 Env expression vector, coding for the gp160 precursor of the CXCR4-tropic NL4-3 envelope (X4env). Binding of FITC-labeled E2 peptides was monitored by flow cytometry.
Figure 4 Recombinant E2_340-Fc protein and E2-derived peptides bind HIV-1 gp41. (A) 293T cells expressing NL4-3 envelope (X4env) or empty plasmid as control were incubated with sCD4 and FITC-conjugated E2 peptides, respectively. Peptide binding was analyzed by flow cytometry. Percentages illustrate the increase of cell binding to X4env-transfected cells. The increase is normalized to the background binding of E2 peptides to mock-transfected cells by calculating the RTCN value. […] (C) E2 peptides with increasing amounts were added to recombinant E2_340-Fc protein (at constant concentration) and then transferred to immobilized recombinant gp41MN.

T32 = test: Unspecific binding of E2 peptides to antibody T32; conditions: data not shown
CXCR4 = CXCR4 surface expression, flow cytometry; type: cell-based, human; conditions: PBMC and TZM-bl cells; E2 peptides 25 µM, SDF-1α 1 µg/ml; 6 hr; FACS; RTCN vs mock; average of two independent experiments each in triplicate
Description: PHA/IL-2-stimulated PBMC or TZM-bl cells were incubated with E2 peptides (25 µM), phorbol 12-myristate 13-acetate (PMA; 40 ng/ml), SDF-1α (1 µg/ml) or RANTES (50 nM) for 6 hr. CD4, CXCR4 and CCR5 surface expression was analyzed by using standard FACS staining protocols. Cells were washed with PBS and incubated for 30 min at 4°C with PE-labeled antibodies (CD4 clone SK3, CXCR4 clone 12G5, and CCR5 clone 2D7, BD Biosciences, Germany). Subsequently, washed cells were resuspended in PBS and analyzed with a FACSCalibur™ flow cytometer (BD Biosciences, Germany).
The non-HIV-1-inhibitory peptide P28 derived from the C-terminal part of E2 (residue 271 to 290), served as a negative control.
CD4, CXCR4 and CCR5 expression on PBMC (A) and TZM-bl cells (B) after preincubation with E2 peptides were determined by flow cytometry analysis. […] Percentages illustrate the ratio-to-cell-negative (RTCN) values that were calculated from the percentage of positive cells and the fluorescence intensity of peptide-incubated cells compared to mock-incubated cells. Columns show average values ±SD of two independent experiments each performed in triplicate. *: p<0.05; **: p<0.01 (mock- vs. inhibitor-incubated cells).

[2] = test system: 6-helix bundle (N36/C34-biotin); test: Inhibition of 6-HB formation, ELISA; type: binding, HIV-1; conditions: mAb NC-1 capture, N36 0.25 µM, C34-biotin 0.25 µM, graded peptide, 30 min 37°C, triplicate
Description: Briefly, 96-well polystyrene plates were coated with the 6-HB-specific monoclonal antibody, NC-1 IgG, (described by) (2 µg/ml in 0.1 M Tris, pH 8.8), and then blocked with 2% non-fat milk. N36 (0.25 µM), the tested peptides and C34 as control were added at graded concentrations into the wells. After incubation for 30 min at 37°C, C34-biotin (0.25 µM) was added, followed by incubation for 45 min at 37°C and washing with wash buffer (PBS containing 0.05% Tween-20) six times. Streptavidin-labeled horseradish peroxidase (Invitrogen, Grand Island, NY) and the substrate 3,3′,5,5′-tetramethylbenzidine (Sigma, St. Louis, MO) were added sequentially. Absorbance at 450 nm (OD450) was measured. The percent inhibition of 6-HB formation by the peptides was calculated as described before.
Figure 5 E2-derived peptides bind to the disulfide loop of gp41. (A) Illustration of gp41 variants (strains IIIB, MN) and peptides (N36, C34) used in ELISA as well as the binding epitopes of different monoclonal gp41 antibodies. Gp41 consists of the N-terminal fusion peptide (FP), the N- and C-heptad repeats (NHR, CHR) that are connected by the disulfide loop region (C-C loop), the membrane proximal external region (MPER), the α-helical transmembrane-spanning domain (TM), and the cytoplasmic tail (CP). […] Each sample was tested in triplicate. This experiment was repeated twice and similar results were obtained. […]

[3] = test system: HIV-1 NL4-3 / TZM-bl cells; test: HIV-1 virion-based (BlaM-Vpr) virus-cell fusion assay; conditions: standard (pre-CD4 binding) and TAS (post-CD4 binding, 23°C 1 h then 37°C 2 hr); E2 peptides 20 µM, AMD-3100 10 µM, 2F5 0.5 µg/ml, b12 and B4 0.3 µg/ml; five independent experiments each in triplicate
Description: HIV-1 virions containing the BlaM-Vpr chimera were produced as previously described [33]. Briefly, 293T cells were co-transfected with pNL4-3 proviral DNA, pCMV-BlaM-Vpr, and pAdVAntage vectors. After 2 days of cultivation, the virus-containing supernatant was centrifuged for 10 min at 300×g to remove cellular debris. The HIV-1 virion-containing supernatant was overlaid onto a 20% sucrose cushion and ultracentrifuged at 35000×g at 4°C for 90 min. The resulting pellet was resuspended in medium and aliquots were frozen at −80°C until usage.
The virion-based fusion assay was performed essentially as described elsewhere [41]. Briefly, 5×10^4 TZM-bl cells were infected with sucrose-purified HIV-1 NL4-3 virions containing BlaM-Vpr (5 ng p24-Gag per approach). Under temperature-arrested state (TAS) conditions, binding of the HI virions to target cells was allowed at low temperature via spinning inoculation, for which virions were added to cells and centrifuged at 2095×g, 4°C for 30 min. […] BlaM activity was quantified using a fluorescence plate reader. The extent of virus-cell fusion was determined from the ratio of blue (460 nm) and green (510 nm) emission upon exciting the cells at 405 nm.
To find out whether early or late steps of HIV-1 entry are affected by the E2 peptides, the E2 peptide activity was determined before and after gp120/CD4 engagement using the Vpr-β-lactamase (Vpr-BlaM) enzyme-based virus-cell fusion assay under standard (pre-CD4 binding) and temperature-arrested state (TAS; post-CD4 binding) conditions, respectively.
The HIV-inhibitory activity of known HIV-1 entry inhibitors or respective E2 peptides was determined using a virus-cell fusion assay under standard (respective inhibitors were added simultaneously to HIV NL4-3BlaM-Vpr inoculum: pre-CD4 binding) or under TAS (temperature-arrested state) conditions (respective inhibitors were added at low temperature of 23°C for 1 h after spin-inoculation [4°C] and removal of unbound HIV-1 particles: post-CD4 binding). […] Percentages were calculated in relation to mock-treated cells. […]

Row | Compound | binding to HIV-1 Env-expressing cells [1] | background attachment to mock- or vector-transfected cells [1] | unspecific binding to antibody T32 (T32) | CXCR4 surface presentation (CXCR4) | inhibition of 6-HB formation [2] | inhibition of virus-cell fusion, standard versus TAS conditions [3]
1 | CC(=O)N[C@@H](CC(C)C)C(=O)N[C@@H](CS)C(=O)N[C@@H](CC(=O)O)C(=O)N[C@@H](CS)C(=O)N1CCC[C@H]1C(=O)N[C@@H](CC(N)=O)C(=O)NCC(=O)N1CCC[C@H]1C(=O)N[C@@H](Cc1c[nH]c2ccccc12)C(=O)N[C@H](C(=O)N[C@@H](Cc1c[nH]c2ccccc12)C(=O)N[C@H](C(=O)N1CCC[C@H]1C(=O)N[C@@H](C)C(=O)N[C@@H](Cc1ccccc1)C(=O)N[C@@H](CS)C(=O)N[C@@H](CCC(N)=O)C(=O)N[C@@H](C)C(=O)N[C@H](C(=O)NCC(=O)O)C(C)C)C(C)C)C(C)C [P6-2] | significant increase in the binding | background attachment | No unspecific binding | no relevant effect on HIV-1 receptor presentation | Neither P4-7 nor P6-2 was able to interfere with the formation of 6-HB | full activity under both conditions
2 | Ac-WDRGNVTLLCDCPNGPWVWV [P4-7, 20 mer peptide presenting amino acids 37 to 56 of the GBV-C E2 protein] | significant increase in the binding | background attachment | No unspecific binding | no relevant effect on HIV-1 receptor presentation | Neither P4-7 nor P6-2 was able to interfere with the formation of 6-HB | full activity under both conditions
